Target: His-Tagged hOGA (human O-GlcNAcase) (Homo sapiens (Human), UniProt O60502)
Assay: Human O-GlcNAcase enzyme inhibition assay;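 note: reactions contained 20 nM His-tagged hOGA enzyme with 10 µM FL-GlcNAc substrate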
Assay type: biochemical
Conditions: OGA enzyme inhibition assay; FL-GlcNAc substrate, pH 6.5; activity classes defined in μM; read-out: OGA IC50
Method: Then, 20 nM of His-Tagged hOGA and 10 μM of FL-GlcNAc (Fluorescein mono-beta-D-(2-deoxy-2-N-acetyl) glucopyranoside; Marker Gene Technologies Inc, M1485) were added to the 384-well plate for a final volume of 20 μl.

Sequence of His-Tagged hOGA (human O-GlcNAcase) (O60502 whole entry): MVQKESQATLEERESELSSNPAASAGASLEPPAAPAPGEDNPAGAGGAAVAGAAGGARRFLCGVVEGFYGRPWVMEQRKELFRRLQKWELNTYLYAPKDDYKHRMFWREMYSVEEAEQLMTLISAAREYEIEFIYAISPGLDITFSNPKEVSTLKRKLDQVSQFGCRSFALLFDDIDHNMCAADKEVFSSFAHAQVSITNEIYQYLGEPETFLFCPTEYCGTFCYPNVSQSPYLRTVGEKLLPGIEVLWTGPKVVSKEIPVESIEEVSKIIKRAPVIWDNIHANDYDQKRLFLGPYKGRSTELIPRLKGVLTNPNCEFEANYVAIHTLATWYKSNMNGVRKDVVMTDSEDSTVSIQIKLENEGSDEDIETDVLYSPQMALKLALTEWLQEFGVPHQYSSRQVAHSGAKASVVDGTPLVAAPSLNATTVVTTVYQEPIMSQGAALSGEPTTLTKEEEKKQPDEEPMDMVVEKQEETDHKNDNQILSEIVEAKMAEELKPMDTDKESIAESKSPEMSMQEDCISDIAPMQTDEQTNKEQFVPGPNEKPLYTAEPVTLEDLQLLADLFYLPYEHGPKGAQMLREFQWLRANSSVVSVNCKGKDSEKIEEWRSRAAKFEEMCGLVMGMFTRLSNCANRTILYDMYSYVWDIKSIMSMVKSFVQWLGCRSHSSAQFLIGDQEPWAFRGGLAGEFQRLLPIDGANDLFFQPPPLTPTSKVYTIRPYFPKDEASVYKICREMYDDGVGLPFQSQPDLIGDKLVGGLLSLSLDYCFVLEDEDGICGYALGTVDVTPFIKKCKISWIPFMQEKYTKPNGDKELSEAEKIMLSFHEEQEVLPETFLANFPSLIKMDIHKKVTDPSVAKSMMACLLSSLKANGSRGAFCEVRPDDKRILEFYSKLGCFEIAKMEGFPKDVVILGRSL

Row | SMILES | IC50
1 | CC(c1ccc2nccnc2c1)N1CCN(c2ccc(C(O)C(F)(F)F)cn2)CC1 (racemic) [Example 56, 2,2,2-trifluoro-1-(6-(4-(1-(quinoxalin-6-yl)ethyl)piperazin-1-yl)pyridin-3-yl)ethan-1-ol] | 0.05 to 0.2 µM
2 | CC(c1ccc2nccnc2c1)N1CCN(c2ccc(C3(O)CCOCC3)cn2)CC1 (racemic) [Example 57, 4-(6-(4-(1-(quinoxalin-6-yl)ethyl)piperazin-1-yl)pyridin-3-yl)tetrahydro-2H-pyran-4-ol] | 0.05 to 0.2 µM
3 | CC(c1ccc2nccnc2c1)N1CCN(c2ccc(C3(O)CCOC3)cn2)CC1 (racemic) [Example 58, 3-(6-(4-(1-(quinoxalin-6-yl)ethyl)piperazin-1-yl)pyridin-3-yl)tetrahydrofuran-3-ol] | 0.05 to 0.2 µM
4 | CC(c1ccc2nccnc2c1)N1CCN(c2ccc(C3(O)COC3)cn2)CC1 (racemic) [Example 59, 3-(6-(4-(1-(quinoxalin-6-yl)ethyl)piperazin-1-yl)pyridin-3-yl)oxetan-3-ol] | 0.05 to 0.2 µM
5 | CC(c1ccc2nccnc2c1)N1CCN(c2ccc(C3(O)CCCCC3)cn2)CC1 (racemic) [Example 60, 1-(6-(4-(1-(quinoxalin-6-yl)ethyl)piperazin-1-yl)pyridin-3-yl)cyclohexan-1-ol] | 0.2 to 1 µM
6 | CC(c1ccc2nccnc2c1)N1CCN(c2ccc(C3(O)CCCC3)cn2)CC1 (racemic) [Example 61, 1-(6-(4-(1-(quinoxalin-6-yl)ethyl)piperazin-1-yl)pyridin-3-yl)cyclopentan-1-ol] | 0.05 to 0.2 µM
7 | COC(=O)c1ccc(N2CCN(C(C)c3ccc4nccnc4c3)CC2)nc1 (racemic) [Example 66, Methyl-6-(4-(1-(quinoxalin-6-yl)ethyl)piperazin-1-yl) nicotinate] | 0.05 to 0.2 µM
8 | CC(c1ccc2nccnc2c1)N1CCN(c2ccc(C(=O)O)cn2)CC1 (racemic) [Example 67, 6-(4-(1-(quinoxalin-6-yl)ethyl)piperazin-1-yl) nicotinic acid] | 0.05 to 0.2 µM
9 | CNC(=O)c1cccc(N2CCN(C(C)c3ccc4nccnc4c3)CC2)n1 (racemic) [Example 68, N-methyl-6-(4-(1-(quinoxalin-6-yl)ethyl)piperazin-1-yl) picolinamide] | 0.05 to 0.2 µM
10 | CC(c1ccc2nccnc2c1)N1CCN(c2cccc(C(=O)N(C)C)n2)CC1 (racemic) [Example 69, N, N-dimethyl-6-(4-(1-(quinoxalin-6-yl)ethyl)piperazin-1-yl) picolinamide] | 0.2 to 1 µM
11 | COC(=O)c1cccc(N2CCN(C(C)c3ccc4nccnc4c3)CC2)n1 (racemic) [Example 70, Methyl 6-(4-(1-(quinoxalin-6-yl)ethyl)piperazin-1-yl)picolinate] | 0.2 to 1 µM
12 | CC(c1ccc2nccnc2c1)N1CCN(c2ccc(S(C)(=O)=O)cn2)CC1 (racemic) [Example 72, 6-(1-(4-(5-(methylsulfonyl)pyridin-2-yl)piperazin-1-yl)ethyl)quinoxaline] | 0.05 to 0.2 µM
13 | CC(c1ccc2c(c1)OCC2)N1CCN(c2ncc(C3(O)CCOC3)cn2)CC1 (racemic) [Example 79, 3-(2-(4-(1-(2,3-dihydrobenzofuran-6-yl)ethyl)piperazin-1-yl)pyrimidin-5-yl)tetrahydrofuran-3-ol] | < 0.05 µM
14 | CC(c1ccc2c(c1)OCC2)N1CCN(c2ncc(C3(O)CCCCC3)cn2)CC1 (racemic) [Example 80, 1-(2-(4-(1-(2,3-dihydrobenzofuran-6-yl)ethyl)piperazin-1-yl)pyrimidin-5-yl)cyclohexan-1-ol] | < 0.05 µM
15 | CC(c1ccc2c(c1)OCC2)N1CCN(c2ncc(C3(O)CCOCC3)cn2)CC1 (racemic) [Example 81, 4-(2-(4-(1-(2,3-dihydrobenzofuran-6-yl)ethyl)piperazin-1-yl)pyrimidin-5-yl)tetrahydro-2H-pyran-4-ol] | < 0.05 µM
16 | CC(c1ccc2c(c1)OCC2)N1CCN(c2ncc(C3(O)COC3)cn2)CC1 (racemic) [Example 82, 3-(2-(4-(1-(2,3-dihydrobenzofuran-6-yl)ethyl)piperazin-1-yl)pyrimidin-5-yl)oxetan-3-ol] | < 0.05 µM
17 | CC(c1ccc2cccnc2n1)N1CCN(c2ncc(C(O)C(F)(F)F)cn2)CC1 (racemic) [Example 83, 1-(2-(4-(1-(1,8-naphthyridin-2-yl)ethyl)piperazin-1-yl)pyrimidin-5-yl)-2,2,2-trifluoroethan-1-ol] | < 0.05 µM
18 | CC(O)c1cnc(N2CCN(C(C)c3ccc4nccnc4c3)CC2)nc1 (racemic) [Example 84, 1-(2-(4-(1-(quinoxalin-6-yl)ethyl)piperazin-1-yl)pyrimidin-5-yl) ethan-1-ol] | 0.05 to 0.2 µM

Next, values leading:

Row | IC50 | SMILES
19 | < 0.05 µM | COC(=O)c1ccc(N2CCN(C(C)c3ccc4c(c3)OCC4)CC2)nc1 (racemic) [Example 62, Methyl 6-(4-(1-(2,3-dihydrobenzofuran-6-yl)ethyl)piperazin-1-yl)nicotinate]
20 | < 0.05 µM | CC(c1ccc2c(c1)OCC2)N1CCN(c2ccc(C(=O)N(C)C)cn2)CC1 (racemic) [Example 63, 6-(4-(1-(2,3-dihydrobenzofuran-6-yl)ethyl)piperazin-1-yl)-N,N-dimethylnicotinamide]
21 | < 0.05 µM | CNC(=O)c1ccc(N2CCN(C(C)c3ccc4c(c3)OCC4)CC2)nc1 (racemic) [Example 64, 6-(4-(1-(2,3-dihydrobenzofuran-6-yl)ethyl)piperazin-1-yl)-N-methylnicotinamide]
22 | < 0.05 µM | CC(c1ccc2c(c1)OCC2)N1CCN(c2ccc(C(=O)O)cn2)CC1 (racemic) [Example 65, 6-(4-(1-(2,3-Dihydrobenzofuran-6-yl)ethyl)piperazin-1-yl)nicotinic acid]
23 | < 0.05 µM | CC(c1ccc2c(c1)OCC2)N1CCN(c2ccc(S(C)(=O)=O)cn2)CC1 (racemic) [Example 71]
24 | < 0.05 µM | CC(c1ccc2scnc2c1)N1CCN(c2ncc(CO)cn2)CC1 (racemic) [Example 73, (2-(4-(1-(benzo[d]thiazol-5-yl)ethyl)piperazin-1-yl)pyrimidin-5-yl)methanol]
25 | < 0.05 µM | CC(c1ccc2c(c1)OCC2)N1CCN(c2ncc(C(C)(C)O)cn2)CC1 (racemic) [Example 74, 2-(2-(4-(1-(2,3-dihydrobenzofuran-6-yl)ethyl)piperazin-1-yl)pyrimidin-5-yl) propan-2-ol]
26 | < 0.05 µM | CC(c1ccc2c(c1)OCC2)N1CCN(c2ncc(CO)cn2)CC1 (racemic) [Example 75, (2-(4-(1-(2,3-Dihydrobenzofuran-6-yl)ethyl)piperazin-1-yl)pyrimidin-5-yl) methanol]
27 | < 0.05 µM | CC(c1ccc2c(c1)OCC2)N1CCN(c2ncc(C3(O)CC3)cn2)CC1 (racemic) [Example 76, 1-(2-(4-(1-(2,3-dihydrobenzofuran-6-yl)ethyl)piperazin-1-yl)pyrimidin-5-yl)cyclopropan-1-ol]
28 | < 0.05 µM | CC(c1ccc2c(c1)OCC2)N1CCN(c2ncc(C(O)C(F)(F)F)cn2)CC1 (racemic) [Example 77, 1-(2-(4-(1-(2,3-dihydrobenzofuran-6-yl)ethyl)piperazin-1-yl)pyrimidin-5-yl)-2,2,2-trifluoroethan-1-ol]
29 | < 0.05 µM | CC(C)C(O)c1cnc(N2CCN(C(C)c3ccc4c(c3)OCC4)CC2)nc1 (racemic) [Example 78, 1-(2-(4-(1-(2,3-dihydrobenzofuran-6-yl)ethyl)piperazin-1-yl)pyrimidin-5-yl)-2-methylpropan-1-ol]
